Test results as given in patent publication US6716392B1, “Preservation of liquid biological samples” (The United States of America as represented by the United …, priority 1995, dated 2004).
Where two headings read alike, the source gives them in different places.

Experiments:
[1] = Stability of spiked APAP and AP in saliva (HPLC); format: physicochemical
From the text: Non-invasive estimates of physiological and pharmacokinetic alterations may be obtained by measuring the concentrations of certain compounds and their metabolites in liquid biological samples (e.g., saliva). For example, gastrointestinal activity and the absorption, bioavailability and elimination of acetaininophen (“APAP”) may be assessed by measuring APAP concentrations in liquid biological samples following oral administration of APAP. In addition, hepatic metabolism may be measured indirectly from the clearance of orally administered antipyrine (“AP”) from liquid biological samples. The accuracy of such non-invasive estimates depends, in part, upon the stability of the reference compound or metabolite in the liquid biological sample. Therefore, the effectiveness of a particular preservative may be evaluated by determining the degradation time course for a known quantity of a specific reference compound.
The effectiveness of the preservative of the present invention was evaluated by measuring the stability of APAP and AP in saliva samples stored at −20° C. as compared to saliva samples stored at room temperature and containing sodium benzoate and citric acid in an amount of 0.25% and 0.05% of the sample (weight/volume), respectively (“P1”). Saliva samples were collected from forty subjects, pooled, aliquoted and spiked with APAP (5 or 25 μg/ml) or AP (5 or 50 μg/ml). Duplicate samples were analyzed by high performance liquid chromatography on days 1, 14, 28, 60, 120, 180, 240 and 360 (see Tables 1-4 below).

[2] = format: physicochemical; details: for storage time over which concentrations in saliva were comparable / preserved: room temperature in the presence of P1 versus −20° C.; for SALIVA STABILITY OF MELATONIN: human
Experimental: The effectiveness of the preservative of the present invention in maintaining the stability of hormones in liquid biological samples was evaluated by measuring the maintenance of base-line physiological levels of melatonin and cortisol in saliva. Aliquots (non-spiked) of the pooled saliva samples containing base-line physiological levels of melatonin and cortisol were stored −20° C. or at room temperature and containing sodium benzoate and citric acid in an amount of 0.25% and 0.05% of the sample (weight/volume), respectively (“P1”). Duplicate samples were analyzed by radioimmunoassay on days 1, 14, 28, 60, 120, 180, 240 and 360 (see Tables 5 and 6 below).

## CC(=O)Nc1ccc(O)cc1 [APAP, acetaminophen]
[1]; 5 μg/ml APAP, No Preservative, −20° C., Day 01
  Saliva Stability (APAP concentration): 5.83 ± 0.08 µg/mL
[1]; 5 μg/ml APAP, No Preservative, −20° C., Day 14
  Saliva Stability (APAP concentration): 6.59 ± 0.61 µg/mL
[1]; 5 μg/ml APAP, No Preservative, −20° C., Day 28
  Saliva Stability (APAP concentration): 5.81 ± 0.08 µg/mL
[1]; 5 μg/ml APAP, No Preservative, −20° C., Day 60
  Saliva Stability (APAP concentration): 5.82 ± 0.20 µg/mL
[1]; 5 μg/ml APAP, No Preservative, −20° C., Day 120
  Saliva Stability (APAP concentration): 5.54 ± 0.33 µg/mL
[1]; 5 μg/ml APAP, No Preservative, −20° C., Day 180
  Saliva Stability (APAP concentration): 3.77 ± 0.03 µg/mL
[1]; 5 μg/ml APAP, No Preservative, −20° C., Day 240
  Saliva Stability (APAP concentration): 4.17 ± 0.16 µg/mL
[1]; 5 μg/ml APAP, No Preservative, −20° C., Day 360
  Saliva Stability (APAP concentration): 5.14 ± 0.09 µg/mL
[1]; 5 μg/ml APAP, P1, RT, Day 01
  Saliva Stability (APAP concentration): 5.49 ± 0.09 µg/mL
[1]; 5 μg/ml APAP, P1, RT, Day 14
  Saliva Stability (APAP concentration): 5.38 ± 0.14 µg/mL
[1]; 5 μg/ml APAP, P1, RT, Day 28
  Saliva Stability (APAP concentration): 4.83 ± 1.79 µg/mL
[1]; 5 μg/ml APAP, P1, RT, Day 60
  Saliva Stability (APAP concentration): 6.89 ± 0.94 µg/mL
[1]; 5 μg/ml APAP, P1, RT, Day 120
  Saliva Stability (APAP concentration): 5.40 ± 0.20 µg/mL
[1]; 5 μg/ml APAP, P1, RT, Day 180
  Saliva Stability (APAP concentration): 4.37 ± 0.08 µg/mL
[1]; 5 μg/ml APAP, P1, RT, Day 240
  Saliva Stability (APAP concentration): 4.29 ± 0.25 µg/mL
[1]; 5 μg/ml APAP, P1, RT, Day 360
  Saliva Stability (APAP concentration): 5.31 ± 0.43 µg/mL
[1]; 25 μg/ml APAP, No Preservative, −20° C., Day 01
  Saliva Stability (APAP concentration): 24.88 ± 0.22 µg/mL
[1]; 25 μg/ml APAP, No Preservative, −20° C., Day 14
  Saliva Stability (APAP concentration): 25.60 ± 0.41 µg/mL
[1]; 25 μg/ml APAP, No Preservative, −20° C., Day 28
  Saliva Stability (APAP concentration): 25.25 ± 0.48 µg/mL
[1]; 25 μg/ml APAP, No Preservative, −20° C., Day 60
  Saliva Stability (APAP concentration): 25.02 ± 0.4 µg/mL
[1]; 25 μg/ml APAP, No Preservative, −20° C., Day 120
  Saliva Stability (APAP concentration): 25.45 ± 0.49 µg/mL
[1]; 25 μg/ml APAP, No Preservative, −20° C., Day 180
  Saliva Stability (APAP concentration): 16.71 ± 0.50 µg/mL
[1]; 25 μg/ml APAP, No Preservative, −20° C., Day 240
  Saliva Stability (APAP concentration): 18.20 ± 0.14 µg/mL
[1]; 25 μg/ml APAP, No Preservative, −20° C., Day 360
  Saliva Stability (APAP concentration): 24.37 ± 0.36 µg/mL
[1]; 25 μg/ml APAP, P1, RT, Day 01
  Saliva Stability (APAP concentration): 24.94 ± 0.56 µg/mL
[1]; 25 μg/ml APAP, P1, RT, Day 14
  Saliva Stability (APAP concentration): 24.63 ± 0.12 µg/mL
[1]; 25 μg/ml APAP, P1, RT, Day 28
  Saliva Stability (APAP concentration): 27.3 ± 1.54 µg/mL
[1]; 25 μg/ml APAP, P1, RT, Day 60
  Saliva Stability (APAP concentration): 29.88 ± 3.58 µg/mL
[1]; 25 μg/ml APAP, P1, RT, Day 120
  Saliva Stability (APAP concentration): 24.20 ± 0.47 µg/mL
[1]; 25 μg/ml APAP, P1, RT, Day 180
  Saliva Stability (APAP concentration): 17.55 ± 0.46 µg/mL
[1]; 25 μg/ml APAP, P1, RT, Day 240
  Saliva Stability (APAP concentration): 17.21 ± 0.36 µg/mL
[1]; 25 μg/ml APAP, P1, RT, Day 360
  Saliva Stability (APAP concentration): 25.70 ± 0.55 µg/mL

## C[C@]12CCC(=O)C=C1CC[C@@H]1[C@@H]2[C@@H](O)C[C@@]2(C)[C@H]1CC[C@]2(O)C(=O)CO [Cortisol, cortisol]
[2]
  storage time over which concentrations in saliva were comparable / preserved: 180 days

## COc1ccc2[nH]cc(CCNC(C)=O)c2c1 [Melatonin, melatonin]
[2]; 28 day
  SALIVA STABILITY OF MELATONIN: 31.71 ± 4.4 pg/mL
[2]; 28 days
  SALIVA STABILITY OF MELATONIN: 29.43 ± 5.9 pg/mL
[2]
  storage time over which concentrations in saliva were comparable / preserved: 180 days
